Activity calls are given as the source filed them.
Experiments:
[1] = Activity of hydroxysteroid dehydrogenase
K562 = experiment: Cytotoxicity against human K562 cells; assay type: functional, cell-based
L929 = experiment: Cytotoxicity against mouse L929 cells; assay type: functional, cell-based
[2] = Activity of peroxidase
HeLa = experiment: Cytotoxicity against human HeLa cells; assay type: functional, cell-based

Measured: Activity

CC(/C=C/C(=O)c1ccc(N)cc1)CC(C)C(=O)O (stereo not given)
inactive: all assays above

C/C(=C\C(C)CC(C)C(O)CC(=O)c1ccc(N)cc1)C(=O)O (stereo not given)
inactive: all assays above

CC(O)C(/C=C/C=C/C(=O)O)C(C)CC(C)C(O)CC(=O)c1ccc(N)cc1 (stereo not given)
inactive: all assays above

Source: ChEMBL document CHEMBL1141771, “p-Aminoacetophenonic acids produced by a mangrove endophyte: Streptomyces griseus subsp” (J Nat Prod, 2005)
